Measured values reported in patent publication US7087790B2, “Benzotropolone derivatives and modulation of inflammatory response” (Rutgers, The State University of New Jersey, priority 2003, dated 2006).
Where “and” joins values, the source holds several entries; their conditions need not be identical. Equal entries are not always repeated.

Key:
[1] = Oxygen radical absorbance capacity (ORAC) assay with fluorescein probe and AAPH; settings: Trolox equivalents; 0.5 μM; 75 mM phosphate buffer pH 5.5; mean ± SD, n = 4 (a: n = 3)
Excerpt: In another aspect, the present invention also discloses antioxidant activities of the compositions having benzotropolone containing compounds disclosed herein. Oxygen radical absorbence capacity (ORAC) assay, which is a measure of free radical scavenging ability, is simple and sensitive method to measure the oxygen-radical absorbing capacity. It has been widely used for measuring the antioxidant activity of food and nutraceutical components. ORAC assay was developed by Cao et al., 1993, Free Radical Biol. Med. 14:303–311. In the assay, β-phycoerythrin (β-PE) was used as fluorescent indicator protein and 2,2′-Azobis(2-amidinopropane) dihydrochloride (AAPH) used as a peroxy radical generator. β-PE is a photosynthetic protein found in red algae. β-PE has been used as fluorescent probe because of its distinct excitation and emission wavelength (Ex. 540 nm, Em. 565 nm). The use of β-PE as a fluorescent probe, however, has certain defects. When reactive oxygen species attack the β-PE, it can easily lose the fluorescence. Furthermore, the ORAC value can be affected by possible interaction between polyphenols and proteins. Recently, Ou et al., 2001, J. Agric. Food Chem. 49:4619–4626 reported an improved ORAC method using fluorescein, instead of β-PE, as a fluorescent probe. Accordingly, fluorescein is used as a fluorescent probe in ORAC assays for testing the antioxidant activities of the compounds of the present invention.
Oxygen radical absorbance capacity (ORAC) assay was performed to examine antioxidant activity of individual theaflavins and epitheaflavic acids. All reagents were prepared in 75 mM phosphate buffer (pH 5.5). Reaction mixture consists of 3 mL of Fluorescein solution (8.16×10^−5 mM), 500 μL AAPH (153 mM), and 500 μL of sample solution or blank. Once AAPH was added, fluorescence was measured every 1 min using Hitachi Model F-3010 fluorescence spectrophotometer with emission and excitation wavelength of 515 and 493 nm, respectively. The ORAC value was calculated based on the area under the fluorescence decay curve of fluorescein in the presence of the test compound comparing to the area generated by standard Trolox and blank. The net area under the curve and ORAC values were calculated by the formula presented by Cao et al (Cao et al. 1993).
The relative ORAC value (Trolox equivalents) was calculated with following equation.
The area under curve (AUC) was calculated according to following equation. AUC=1+f1/f0+f2/f0+f3/f0+f4/f0 . . . +f119/f0+f120/f0 f0 is the initial fluorescence reading at 0 min, fi is the fluorescence reading at time i.
Quenching curves representing the peroxyl radical absorbing activity of Trolox in various concentration (0˜4 μM) was used as a standard (data not shown). The net area of quenching curve increased proportionally to an increment of the Trolox concentration. Quenching curves of theaflavins and EGCG were examined (data not shown). […] Quenching curves of epitheaflavic acids and EGCG were also examined. (data not shown).

[2] = tested on: TPA-induced Edema of Mouse Ear; test: TPA-induced ear edema assay (skin inflammation model); type: in vivo, female CD-I mice; settings: 0.5 μmol topical in acetone 20 min before TPA (1 nmol); for Average weight of ear punches (mg) (Mean ± SE): 6 mm punches 5 h later; for Percent inhibition %: ear punch weight 5 h later
Excerpt: In yet another aspect of the invention, the present invention is directed to a method of preventing and/or treating inflammation in an animal using compositions having benzotropolone containing compounds disclosed herein. […] The anti-inflammatory activity (or anti-edema) of benzotropolone containing compounds of the present invention can be tested using 12–0-tetradecanoylphorbol- 13-acetate (TPA) TPA-induced inflammatory skin edema assay. Application of TPA on skin results in induction of omithine decarboxylase activity that increases the polyamine level and epidermal hyperplasia, and inflammation, and pro-inflammatory cytokine (e.g., IL-1β) and prostaglandins (prostaglandin E2) production at the site. The benzotropolone containing compounds can be applied either prior to or subsequent to or simultaneously with the topical application of TPA to skin tissue (e.g. mice ear).
The TPA (12-O-tetradecanoylphorbol-13-acetate)-induced ear edema assay was carried out to examine anti-inflammatory activity of benzotropolone-containing compounds in skin inflammation model. The female CD-I mice (24-25 days old) were topically treated with 20 μl of acetone and benzotropolone-containing compounds in 20 μl of acetone at 20 minutes before topical application of 20 μl of acetone or TPA (1 nmol) in 20 μl of acetone. Then, five hours later, all mice were sacrificed by cervical dislocation. The ear punches (6 mm in diameter) were taken and weighed.

[3] = tested on: TPA-induced ear edema; settings: topical; cited from earlier work

Compound	Relative ORAC value [1]	Average weight of ear punches (mg) (Mean ± SE) [2]	Percent inhibition % [2]	anti-inflammatory activity (rank order, Liang et al.) [3]
O=C(O[C@@H]1Cc2c(O)cc(O)cc2O[C@@H]1c1cc(O)c(O)c(O)c1)c1cc(O)c(O)c(O)c1 [EGCG, (−)-epigallocatechin-3-gallate, reference compound]	7.69 ± 0.35	8.79 ± 0.54 mg	68.3%	
O=C(O)c1cc(O)c(=O)c2c(O)c(O)ccc2c1 [GACa]		8.61 ± 0.54 mg	83.3%	
O=C(OC1Cc2c(O)cc(O)cc2OC1c1cc(O)c(=O)c2c(O)c(O)cc(C3Oc4cc(O)cc(O)c4CC3O)c2c1)c1cc(O)c(O)c(O)c1 (stereo not drawn) [Neotheaflavin 3-gallate]		8.42 ± 0.42 mg	88.4%	
O=c1c(O)cc([C@H]2Oc3cc(O)cc(O)c3C[C@H]2O)cc2c([C@H]3Oc4cc(O)cc(O)c4C[C@@H]3O)cc(O)c(O)c12 [Neotheaflavin]		10.58 ± 0.73 mg	62.9%	
O=c1c(O)cccc2cc(O)c(O)c(O)c12 [Purprogallin, Purpurogallin]	6.01 ± 0.42			
O=C(O)c1cc(O)c(=O)c2c(O)c(O)cc([C@H]3Oc4cc(O)cc(O)c4C[C@@H]3O)c2c1 [Theaflavic acid]		9.28 ± 0.37 mg and 8.95 ± 0.43 mg	78.3% and 79.5%	
O=C(O[C@@H]1Cc2c(O)cc(O)cc2O[C@@H]1c1cc(=O)c(O)c2c(O)c(O)cc([C@H]3Oc4cc(O)cc(O)c4C[C@H]3O)c2c1)c1cc(O)c(O)c(O)c1 [Theaflavin 3-gallate]	13.17 ± 0.18	7.86 ± 0.24 mg	91.5%	
O=c1c(O)cc([C@H]2Oc3cc(O)cc(O)c3C[C@H]2O)cc2c([C@H]3Oc4cc(O)cc(O)c4C[C@H]3O)cc(O)c(O)c12 [Theaflavin]	11.60 ± 0.30	7.90 ± 0.42 mg and 8.23 ± 0.40 mg	89.2% and 87.8%	
Epigallocatechinocatechol gallate [EGCGCa]		7.49 ± 0.12 mg	96.3%	
Epitheaflavic acid	9.74 ± 0.38	9.39 ± 0.43 mg	74.4%	
Neotheaflavate A		8.65 ± 0.64 mg	85.7%	
Theaflavate A		8.52 ± 0.26 mg	87.2%	
Theaflavate B		8.35 ± 0.32 mg	89.2%	
Theaflavin 3,3′-digallate [Theaflavin 3,3′-gallate]	13.54 ± 0.69	7.03 ± 0.18 mg	100.0%	stronger than TF-2
Theaflavin 3′-gallate	12.40 ± 0.58	7.44 ± 0.18 mg	100.0%	
